Measured values taken from the NIST ThermoML archive (doi:10.1016/j.jct.2016.03.030).
± gives the expanded uncertainty stated by the source.

Test: xn = mol fraction of the nth substance listed
Settings: 100 kPa, Liquid; for viscosity: Falling or rolling sphere viscometry; for mass density: Vibrating tube method

CCCCC[N+]1(C)CCOCC1.[Br-] [4-methyl-4-pentylmorpholinium bromide] + O
Settings	mass density, 323.15 K [kg/m3]	mass density, 328.15 K [kg/m3]	mass density, 333.15 K [kg/m3]	mass density, 338.15 K [kg/m3]	mass density, 343.15 K [kg/m3]	viscosity, 323.15 K [mPa·s]	viscosity, 328.15 K [mPa·s]	viscosity, 333.15 K [mPa·s]	viscosity, 338.15 K [mPa·s]	viscosity, 343.15 K [mPa·s]
x1 = 0.0316	1059.7 ± 1.1	1056.6 ± 1.1	1053.5 ± 1.1	1050.5 ± 1.1	1047.2 ± 1.1	1.023 ± 0.1	0.908 ± 0.091	0.817 ± 0.082	0.74 ± 0.074	0.677 ± 0.068
x1 = 0.0695	1111.5 ± 1	1108.1 ± 1	1104.7 ± 1	1101.2 ± 1	1097.8 ± 1	1.95 ± 0.2	1.703 ± 0.17	1.504 ± 0.15	1.374 ± 0.14	1.288 ± 0.13
x1 = 0.0965	1137 ± 1	1133.5 ± 1	1130 ± 1	1126.5 ± 1	1122.9 ± 1	2.963 ± 0.3	2.557 ± 0.26	2.234 ± 0.22	1.965 ± 0.2	1.733 ± 0.17
x1 = 0.1196	1152.9 ± 1	1149.4 ± 1	1145.9 ± 1	1142.3 ± 1	1138.7 ± 1	4.065 ± 0.41	3.475 ± 0.35	3.003 ± 0.3	2.724 ± 0.27	2.554 ± 0.26
x1 = 0.1522	1170.6 ± 1.1	1167.1 ± 1.1	1163.6 ± 1.1	1160.1 ± 1.1	1156.5 ± 1.1	6.349 ± 0.64	5.382 ± 0.54	4.616 ± 0.46	3.961 ± 0.4	3.412 ± 0.34
x1 = 0.2054	1191.3 ± 1.1	1187.9 ± 1.1	1184.4 ± 1.1	1180.9 ± 1.1	1177.5 ± 1.1	11.9 ± 1.2	9.86 ± 0.99	8.297 ± 0.83	7.055 ± 0.71	6.064 ± 0.61
x1 = 0.219	1195.4 ± 1.2	1191.9 ± 1.2	1188.5 ± 1.2	1185.1 ± 1.2	1181.6 ± 1.2	13.89 ± 1.4	11.44 ± 1.1	9.561 ± 0.96	8.079 ± 0.81	7.061 ± 0.71
x1 = 0.2438	1202.2 ± 1.2	1198.8 ± 1.2	1195.4 ± 1.2	1192 ± 1.2	1188.5 ± 1.2	18.52 ± 1.9	15.02 ± 1.5	12.38 ± 1.2	10.39 ± 1	8.615 ± 0.87
x1 = 0.2754	1209.4 ± 1.3	1206.1 ± 1.3	1202.7 ± 1.3	1199.3 ± 1.3	1196 ± 1.3	26.85 ± 2.7	21.35 ± 2.1	17.33 ± 1.7	14.54 ± 1.5	12.93 ± 1.3
